# Where two headings read alike, the source gives them in different places.
# What was measured:
# [1] = system: human foreskin fibroblasts; experiment: Cytotoxicity: metabolic activity (WST-1) of quiescent fibroblasts exposed to inhibitor; type: cell-based; conditions: 25 μM compound, 0.5% DMSO, 48 hours, 60% or below = very sick or dead
# Description: C-proteinase inhibitors were studied in cytotoxicity assays wherein quiescent cells were exposed to C-proteinase inhibitors for a given time and cell viability measured. By examining cellular metabolic activity, cell viability and cell survival were determined.
# C-proteinase inhibitors were tested on human foreskin fibroblasts that had been grown to confluence in 96 well microtiter plates in Dulbecco's Modified Eagle Medium (DMEM) containing 10% fetal calf serum. Shortly before adding the inhibitors, the media was removed and 90 μl per microtiter well of fresh serum-free DMEM was added to the cells. The C-proteinase inhibitors were made up as concentrated stocks containing compound at 250 μM in the presence of 5% DMSO as solvent. A concentrated stock of 10 μl was added to each microtiter well to give a final compound concentration of 25 μM in the presence of 0.5% DMSO. The cells were incubated in the presence of the C-proteinase inhibitor for 48 hours, and then cell viability and survival were measured as a function of metabolic activity. To examine cellular metabolic activity, 10 μl of WST-1 reagent (Boehringer Mannheim) was added to each well of a 96 well microtiter plate containing quiescent cells that were already in media. The plate was incubated at 37° C. for 120 minutes and removed. The absorbance at 450 nm-650 nm was recorded. […] Controls included untreated healthy cells, and cells killed with 0.1% saponin.
# Cytotoxicity was evaluated as a function of cellular survival. Cellular survival was determined by measuring the metabolic activity of the quiescent cells after exposure to the C-proteinase inhibitors. To determine the metabolic activity of the cells, the color change of a trazolium dye over time was examined according to Mossmann, […], Immunol. Methods 65:66; Carmichael, 1987, Cancer Res 47:936, incorporated herein by reference. Healthy cells cleaved the dye producing a colored product that can be quantitated. […] Dead cells had no metabolic activity and no effect on the dye was shown.
# The amount of dye cleaved by cells that had been incubated with inhibitor, expressed as a percentage relative to untreated cells, is shown in TABLE 2. Cells that register at 60% or below are considered either very sick or dead. Control cells that were intentionally killed give a value of close to 20%.
# [2] = molecular target: T1, recombinant human C-proteinase (Homo sapiens, UniProt P13497); experiment: C-proteinase IC50 assay with fluorogenic peptide; type: biochemical
# T1 sequence (P13497 121-986): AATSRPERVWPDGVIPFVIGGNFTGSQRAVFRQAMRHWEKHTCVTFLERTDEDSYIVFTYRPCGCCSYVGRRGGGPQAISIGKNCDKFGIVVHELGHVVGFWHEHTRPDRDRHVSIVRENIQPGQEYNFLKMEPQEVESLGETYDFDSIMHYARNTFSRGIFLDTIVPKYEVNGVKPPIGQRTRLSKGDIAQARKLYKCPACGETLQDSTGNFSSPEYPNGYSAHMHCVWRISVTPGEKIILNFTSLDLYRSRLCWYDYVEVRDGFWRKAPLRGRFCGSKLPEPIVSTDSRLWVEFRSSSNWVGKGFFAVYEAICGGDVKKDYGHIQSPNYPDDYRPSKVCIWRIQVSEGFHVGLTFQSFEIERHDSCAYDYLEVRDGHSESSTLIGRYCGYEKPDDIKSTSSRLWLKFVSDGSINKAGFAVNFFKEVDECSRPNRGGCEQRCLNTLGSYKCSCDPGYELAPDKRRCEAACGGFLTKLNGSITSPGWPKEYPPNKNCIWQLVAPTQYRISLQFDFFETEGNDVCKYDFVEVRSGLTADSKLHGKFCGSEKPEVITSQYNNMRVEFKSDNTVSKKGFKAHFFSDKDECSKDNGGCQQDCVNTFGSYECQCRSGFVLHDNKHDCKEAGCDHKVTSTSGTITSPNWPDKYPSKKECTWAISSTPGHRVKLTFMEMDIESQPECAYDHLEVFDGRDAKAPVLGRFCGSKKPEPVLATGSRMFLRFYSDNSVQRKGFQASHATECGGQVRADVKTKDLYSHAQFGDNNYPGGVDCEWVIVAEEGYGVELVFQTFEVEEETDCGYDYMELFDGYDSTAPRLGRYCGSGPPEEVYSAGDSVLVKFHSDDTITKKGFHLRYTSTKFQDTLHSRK
# Description: The reaction was started with the addition of 20 μl of the recombinant human C-proteinase mix. The reaction proceeded for 4 hours at 37° C. and the fluorescence was measured using a Bio-Tek Fl-600.
# [3] = IC50 (μM) Of Various C-Proteinase Inhibitors
# [4] = recombinant human C-proteinase, 50 μM fluorogenic peptide, 4 hours at 37° C., read-out: IC50 (μM) Of Various C-Proteinase Inhibitors
structure (smiles),measurement,setting,value
COc1ccc(S(=O)(=O)N(CCC(=O)NO)CCc2ccc(Cl)cc2)cc1 [Compound 1300],Percent Metabolic Activity of Fibroblasts Exposed To Various C-Proteinase Inhibitors Relative to Untreated Fibroblasts,[1],109.9%
COc1ccc(S(=O)(=O)N(CCC(=O)NO)C2C3CC4CC(C3)CC2C4)cc1 (centres unmarked) [Compound 1335],Percent Metabolic Activity of Fibroblasts Exposed To Various C-Proteinase Inhibitors Relative to Untreated Fibroblasts,[1],113.3%
CC(=O)Nc1ccc(S(=O)(=O)N(CCC(=O)NO)Cc2ccc3c(c2)OCO3)cc1 [Compound 1357],Percent Metabolic Activity of Fibroblasts Exposed To Various C-Proteinase Inhibitors Relative to Untreated Fibroblasts,[1],108.1%
CCCCCCCCS(=O)(=O)N(CCC(=O)NO)Cc1ccc2c(c1)OCO2 [Compound 1359],Percent Metabolic Activity of Fibroblasts Exposed To Various C-Proteinase Inhibitors Relative to Untreated Fibroblasts,[1],101.1%
O=C(CCN(Cc1ccc2c(c1)OCO2)S(=O)(=O)c1ccc(S(=O)(=O)c2ccccc2)s1)NO [Compound 1361],Percent Metabolic Activity of Fibroblasts Exposed To Various C-Proteinase Inhibitors Relative to Untreated Fibroblasts,[1],103.4%
O=C(CCN(Cc1ccc2c(c1)OCO2)S(=O)(=O)c1cccc2nsnc12)NO [Compound 1362],Percent Metabolic Activity of Fibroblasts Exposed To Various C-Proteinase Inhibitors Relative to Untreated Fibroblasts,[1],119.4%
O=C(CCN(Cc1ccc2c(c1)OCO2)S(=O)(=O)c1ccc(Br)s1)NO [Compound 1367],Percent Metabolic Activity of Fibroblasts Exposed To Various C-Proteinase Inhibitors Relative to Untreated Fibroblasts,[1],114.5%
N/C(=N\O)c1ccc(S(=O)(=O)N(CCC(=O)NO)Cc2ccc3c(c2)OCO3)cc1 [Compound 1369],Percent Metabolic Activity of Fibroblasts Exposed To Various C-Proteinase Inhibitors Relative to Untreated Fibroblasts,[1],117.1%
O=C(CCN(Cc1ccc2c(c1)OCO2)S(=O)(=O)c1cccs1)NO [Compound 1371],Percent Metabolic Activity of Fibroblasts Exposed To Various C-Proteinase Inhibitors Relative to Untreated Fibroblasts,[1],114.4%
CCCCOc1ccc(S(=O)(=O)N(CCC(=O)NO)Cc2ccc3c(c2)OCO3)cc1 [Compound 1372],Percent Metabolic Activity of Fibroblasts Exposed To Various C-Proteinase Inhibitors Relative to Untreated Fibroblasts,[1],109.2%
COc1ccc(S(=O)(=O)N(CCC(=O)NO)CC2COc3ccccc3O2)cc1 (centres unmarked) [Compound 1374],Percent Metabolic Activity of Fibroblasts Exposed To Various C-Proteinase Inhibitors Relative to Untreated Fibroblasts,[1],117.6%
COc1ccccc1CCN(CCC(=O)NO)S(=O)(=O)c1ccc(C(=O)O)cc1 [Compound 1405],Percent Metabolic Activity of Fibroblasts Exposed To Various C-Proteinase Inhibitors Relative to Untreated Fibroblasts,[1],114.5%
N/C(=N\O)c1ccc(S(=O)(=O)N(CCC(=O)NO)CCc2cccs2)cc1 [Compound 1409],Percent Metabolic Activity of Fibroblasts Exposed To Various C-Proteinase Inhibitors Relative to Untreated Fibroblasts,[1],108.8%
COc1ccc(S(=O)(=O)N(CCC(=O)NO)Cc2ccc3c(c2)OCO3)cc1OC [Compound 1410],Percent Metabolic Activity of Fibroblasts Exposed To Various C-Proteinase Inhibitors Relative to Untreated Fibroblasts,[1],108.6%
CC(=O)Nc1ccc(S(=O)(=O)N(CCC(=O)NO)CCc2cccs2)cc1 [Compound 1411],Percent Metabolic Activity of Fibroblasts Exposed To Various C-Proteinase Inhibitors Relative to Untreated Fibroblasts,[1],108.2%
O=C(CCN(CCc1cccs1)S(=O)(=O)Cc1ccccc1)NO [Compound 1414],Percent Metabolic Activity of Fibroblasts Exposed To Various C-Proteinase Inhibitors Relative to Untreated Fibroblasts,[1],112.6%
COc1ccc(S(=O)(=O)N(CCC(=O)NO)Cc2ccccc2)cc1 [compound 121],IC50,[2]; [3],9 µM
COc1ccc(S(=O)(=O)N(CCC(=O)NO)c2ccccc2)cc1 [compound 124],IC50,[2]; [3],2 µM
COc1ccc(S(=O)(=O)N(CCc2ccccc2)CC(=O)NO)cc1 [compound 128],IC50,[2]; [3],15.3 µM
COc1ccc(CCN(CC(=O)NO)S(=O)(=O)c2ccc(OC)cc2)cc1 [compound 204],IC50,[2]; [4],22.1 µM
COc1ccc(N(CCC(=O)NO)S(=O)(=O)c2ccc(OC)cc2)cc1 [compound 208],IC50,[2]; [3],1.68 µM
same,IC50,[2]; IC50 of Cpase,1.68 µM
COc1ccc(S(=O)(=O)N(CCC(=O)NO)CCN2CCOCC2)cc1 [compound 1131],IC50,[2]; [3],80.5 µM
COc1ccc(S(=O)(=O)N(CCC(=O)NO)CCc2ccccn2)cc1 [compound 1132],IC50,[2],8 µM
COc1ccc(S(=O)(=O)N(CCC(=O)NO)Cc2ccc(Cl)cc2)cc1 [compound 1237],IC50,[2]; [4],3.57 µM
O=C(CCN(CCc1ccccc1)S(=O)(=O)c1ccc([N+](=O)[O-])cc1)NO [compound 1268],IC50,[2]; [4],3.03 µM
O=C(CCN(CCc1ccccc1)S(=O)(=O)c1cccs1)NO [compound 1270],IC50,[2]; [4],1.21 µM
COc1ccc(S(=O)(=O)N(CCC(=O)NO)Cc2ccc3c(c2)OCO3)cc1 [compound 1273],IC50,[2]; [4],0.63 µM
COc1ccc(S(=O)(=O)N(CCC(=O)NO)CCc2ccc(Cl)cc2)cc1 [compound 1300],IC50,[2]; [4],2.43 µM
COc1ccc(S(=O)(=O)N(CCC(=O)NO)C2C3CC4CC(C3)CC2C4)cc1 (centres unmarked) [compound 1335],IC50,[2]; [4],36.5 µM
CC(=O)Nc1ccc(S(=O)(=O)N(CCC(=O)NO)Cc2ccc3c(c2)OCO3)cc1 [compound 1357],IC50,[2]; [4],0.55 µM
O=C(CCN(Cc1ccc2c(c1)OCO2)S(=O)(=O)c1ccc(S(=O)(=O)c2ccccc2)s1)NO [compound 1361],IC50,[2]; [4],0.88 µM
O=C(CCN(Cc1ccc2c(c1)OCO2)S(=O)(=O)c1cccc2nsnc12)NO [compound 1362],IC50,[2]; [4],1.51 µM
O=C(CCN(Cc1ccc2c(c1)OCO2)S(=O)(=O)c1ccc(Br)s1)NO [compound 1367],IC50,[2]; [4],1.47 µM
N/C(=N\O)c1ccc(S(=O)(=O)N(CCC(=O)NO)Cc2ccc3c(c2)OCO3)cc1 [compound 1369],IC50,[2]; [4],0.23 µM
O=C(CCN(Cc1ccc2c(c1)OCO2)S(=O)(=O)c1cccs1)NO [compound 1371],IC50,[2]; [4],0.91 µM
CCCCOc1ccc(S(=O)(=O)N(CCC(=O)NO)Cc2ccc3c(c2)OCO3)cc1 [compound 1372],IC50,[2]; [4],1.7 µM
COc1ccccc1CCN(CCC(=O)NO)S(=O)(=O)c1ccc(C(=O)O)cc1 [compound 1405],IC50,[2]; [4],1.46 µM
N/C(=N\O)c1ccc(S(=O)(=O)N(CCC(=O)NO)CCc2cccs2)cc1 [compound 1409],IC50,[2]; [4],0.18 µM
COc1ccc(S(=O)(=O)N(CCC(=O)NO)Cc2ccc3c(c2)OCO3)cc1OC [compound 1410],IC50,[2]; [4],1.77 µM
CC(=O)Nc1ccc(S(=O)(=O)N(CCC(=O)NO)CCc2cccs2)cc1 [compound 1411],IC50,[2]; [4],0.39 µM
O=C(CCN(CCc1cccs1)S(=O)(=O)Cc1ccccc1)NO [compound 1414],IC50,[2]; [4],3.5 µM
CCCCOc1ccc(S(=O)(=O)N(CCC(=O)NO)CCc2cccs2)cc1 [compound 1416],IC50,[2]; [4],0.82 µM
O=C(CCN(CCc1cccs1)S(=O)(=O)c1ccc(Br)s1)NO [compound 1417],IC50,[2]; [4],1.67 µM
O=C(CCN(CCc1cccs1)S(=O)(=O)c1ccc(S(=O)(=O)c2ccccc2)s1)NO [compound 1419],IC50,[2]; [4],3.95 µM
O=C(CCN(CCc1cccs1)S(=O)(=O)c1cccs1)NO [compound 1425],IC50,[2]; [4],1.32 µM
COc1ccc(CCN(CCC(=O)NO)S(=O)(=O)c2cccc(/C(N)=N/O)c2)cc1 [compound 1456],IC50,[2]; [3],0.4 µM
N/C(=N\O)c1cccc(S(=O)(=O)N(CCC(=O)NO)CCc2cccs2)c1 [compound 1457],IC50,[2]; [4],0.84 µM
N/C(=N\O)c1cccc(S(=O)(=O)N(CCC(=O)NO)Cc2ccc3c(c2)OCO3)c1 [compound 1458],IC50,[2]; [4],0.25 µM
CS(=O)(=O)c1ccc(S(=O)(=O)N(CCC(=O)NO)CCc2cccs2)cc1 [compound 1463],IC50,[2]; [4],0.7 µM
CS(=O)(=O)c1ccc(S(=O)(=O)N(CCC(=O)NO)Cc2ccc3c(c2)OCO3)cc1 [compound 1464],IC50,[2]; [4],0.35 µM
COc1ccc(CCN(CCC(=O)NO)S(=O)(=O)c2cccc(N)c2)cc1 [compound 1492],IC50,[2]; [4],0.32 µM
COc1ccc(CCN(CCC(=O)NO)S(=O)(=O)c2ccc(-c3nnn[nH]3)cc2)cc1 [compound 1496],IC50,[2]; [4],0.25 µM

# — patent publication US6506936B1, “N-substituted arylsulfonylamino hydroxamic acids useful as inhibitors of c-proteinase and for treating or preventing disorders related to unregulated collagen production” (FibroGen, Inc., priority 1999, dated 2003)
